The assay concerns the target BoNT A light chain (BoNT A Lc) (Clostridium botulinum, UniProt P0DPI0). Type of assay: biochemical.

Experimental findings from US20120202754A1 (priority 2009, published 2012) are described below.

Chain of BoNT A light chain (BoNT A Lc) (P0DPI0 2-448 limits assumed): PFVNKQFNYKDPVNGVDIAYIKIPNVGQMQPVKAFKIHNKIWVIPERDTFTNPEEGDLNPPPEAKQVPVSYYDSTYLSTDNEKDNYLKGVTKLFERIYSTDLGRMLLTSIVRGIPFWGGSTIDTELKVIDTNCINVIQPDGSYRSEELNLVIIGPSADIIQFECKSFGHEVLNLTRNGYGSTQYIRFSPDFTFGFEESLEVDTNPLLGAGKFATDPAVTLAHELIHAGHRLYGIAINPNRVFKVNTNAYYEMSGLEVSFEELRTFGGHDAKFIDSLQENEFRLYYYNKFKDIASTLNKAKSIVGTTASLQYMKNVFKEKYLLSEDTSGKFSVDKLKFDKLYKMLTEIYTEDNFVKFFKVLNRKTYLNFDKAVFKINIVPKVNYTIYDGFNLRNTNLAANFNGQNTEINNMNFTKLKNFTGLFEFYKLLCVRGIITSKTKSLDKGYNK

In the case of “N R V R I D A A N Q R A T R M [Peptide P5]”, the “effect of substitution or truncation on hydrolysis rate (in words)” value (“effect of substitution or truncation” below) is recorded as “enhanced cleavage velocity”. As for “S N K V R I D Q A N Q R A T K M L [Peptide P3]”, the “effect of substitution or truncation” value was “further enhanced the rate”. In the case of “S N R V R I D Q A N Q R A T R M L [Peptide P4]”, the “effect of substitution or truncation” value was “had no effect”.

With V R I D A A N Q R A T R M [Peptide P7], the “effect of substitution or truncation” value is listed as “decreased the hydrolysis rate significantly”.
